Test results from PubChem BioAssay AID328 (DTP/NCI, 2004).
Several values for one entry are separate records, joined by “and”; a condition that tells them apart may be missing. Equal entries are not always repeated. Inconclusive results and toxic doses are left out.

Test system: BDF1 mice, P388 leukemia ip, median survival T/C
Experiment: NCI In Vivo Anticancer Drug Screen. Data for tumor model P388 Leukemia (intraperitoneal) in B6D2F1 (BDF1) mice
Conditions: endpoint: median survival time, higher = longer survival
Outline: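 In tumour-bearing mice, survival after compound treatment is set against the vehicle group and given as a quotient.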

[1] = dose: 100.0 mg/kg/injection, schedule: Q04DX003 (ip), vehicle: saline with Tween-80
[2] = dose: 50.0 mg/kg/injection, schedule: Q01DX009 (ip), vehicle: saline with Tween-80
[3] = dose: 100.0 mg/kg/injection, schedule: Q01DX009 (ip), vehicle: saline with Tween-80
[4] = dose: 200.0 mg/kg/injection, schedule: Q01DX009 (ip), vehicle: saline with Tween-80
[5] = dose: 25.0 mg/kg/injection, schedule: Q01DX009 (ip), vehicle: saline
[6] = dose: 50.0 mg/kg/injection, schedule: Q01DX009 (ip), vehicle: saline
[7] = dose: 100.0 mg/kg/injection, schedule: Q01DX009 (ip), vehicle: saline

Q: With `NC(C/[N+]([O-])=N/O)C(=O)O` (stereo not given) as the compound, how does the T/C (dose: 15.6 mg/kg/injection, schedule: Q04DX003 (ip), vehicle: saline) read?
A: 118 % of control

Q: And the T/C (dose: 15.6 mg/kg/injection, schedule: Q04DX003 (ip), vehicle: water)?
A: 118 % of control

Q: What about the T/C (dose: 25.0 mg/kg/injection, schedule: Q01DX010 (ip), vehicle: other) of the same compound?
A: 150 % of control

Q: And the T/C (dose: 25.0 mg/kg/injection, schedule: Q01DX010 (ip), vehicle: saline)?
A: 122 % of control

Q: What about the T/C (dose: 31.3 mg/kg/injection, schedule: Q04DX003 (ip), vehicle: saline) of the same compound?
A: 122 % of control

Q: What about the T/C (dose: 50.0 mg/kg/injection, schedule: Q01DX010 (ip), vehicle: other) of the same compound?
A: 150 % of control

Q: What about the T/C (dose: 100.0 mg/kg/injection, schedule: Q01DX010 (ip), vehicle: other) of the same compound?
A: 165 % of control

Q: What about the T/C (dose: 125.0 mg/kg/injection, schedule: Q04DX003 (ip), vehicle: water) of the same compound?
A: 168 % of control

Q: And the T/C (dose: 173.0 mg/kg/injection, schedule: Q04DX003 (ip), vehicle: sodium bicarbonate)?
A: 161 % of control and 171 % of control

Q: What about the T/C (dose: 200.0 mg/kg/injection, schedule: Q01DX010 (ip), vehicle: saline) of the same compound?
A: 100 % of control

Q: What about the T/C (dose: 250.0 mg/kg/injection, schedule: Q04DX003 (ip), vehicle: saline) of the same compound?
A: 172 % of control

Q: And the T/C (dose: 250.0 mg/kg/injection, schedule: Q04DX003 (ip), vehicle: water)?
A: 181 % of control

Q: And the T/C (dose: 288.0 mg/kg/injection, schedule: Q04DX003 (ip), vehicle: sodium bicarbonate)?
A: 161 % of control and 172 % of control

Q: What about the T/C (dose: 480.0 mg/kg/injection, schedule: Q04DX003 (ip), vehicle: sodium bicarbonate) of the same compound?
A: 190 % of control and 192 % of control

Q: What about the T/C (dose: 500.0 mg/kg/injection, schedule: Q04DX003 (ip), vehicle: saline) of the same compound?
A: 181 % of control

Q: What about the T/C (dose: 500.0 mg/kg/injection, schedule: Q04DX003 (ip), vehicle: water) of the same compound?
A: 177 % of control

Q: What about the T/C (dose: 800.0 mg/kg/injection, schedule: Q04DX003 (ip), vehicle: sodium bicarbonate) of the same compound?
A: 116 % of control

Q: `COc1cc2c(cc1OC)/C(=C1\OC(=O)c3c1ccc1c3OCO1)N(C)CC2` was tested. Which T/C [1] did it give?
A: 100 % of control

Q: And the T/C (dose: 200.0 mg/kg/injection, schedule: Q04DX003 (ip), vehicle: saline with Tween-80)?
A: 92 % of control

Q: What about the T/C (dose: 400.0 mg/kg/injection, schedule: Q04DX003 (ip), vehicle: saline with Tween-80) of the same compound?
A: 88 % of control

Q: Which T/C [2] does the source give for `COC(=O)C(C#N)=N/C=C/C=C1/N(C)c2ccccc2C1(C)C` here?
A: 96 % of control

Q: What about the T/C [3] of the same compound?
A: 92 % of control

Q: What about the T/C [4] of the same compound?
A: 99 % of control

Q: `CCOC(=O)Nc1cc(NC/C(=N/O)c2ccc(OC)cc2)c([N+](=O)[O-])c(N)n1` was tested. Which T/C (dose: 12.5 mg/kg/injection, schedule: Q01DX001 (ip), vehicle: Klucel (hydroxypropylcellulose) (HPC)) did it give?
A: 93 % of control

Q: What about the T/C (dose: 25.0 mg/kg/injection, schedule: Q01DX001 (ip), vehicle: Klucel (hydroxypropylcellulose) (HPC)) of the same compound?
A: 93 % of control

Q: What about the T/C (dose: 50.0 mg/kg/injection, schedule: Q01DX001 (ip), vehicle: Klucel (hydroxypropylcellulose) (HPC)) of the same compound?
A: 93 % of control

Q: How did the T/C (dose: 12.5 mg/kg/injection, schedule: Q01DX009 (ip), vehicle: saline) turn out when `CCN(CC)Cc1cc(Nc2c3ccccc3nc3cc(Cl)ccc23)ccc1O` was run?
A: 100 % of control

Q: And the T/C (dose: 12.5 mg/kg/injection, schedule: Q04DX003 (ip), vehicle: saline sonified)?
A: 104 % of control

Q: And the T/C [5]?
A: 100 % of control

Q: And the T/C (dose: 25.0 mg/kg/injection, schedule: Q04DX003 (ip), vehicle: saline sonified)?
A: 100 % of control

Q: What about the T/C (dose: 50.0 mg/kg/injection, schedule: Q04DX003 (ip), vehicle: saline sonified) of the same compound?
A: 104 % of control

Q: What does the source list for `Cc1cc(C)c(C)[nH]1`?
A: T/C (dose: 3.12 mg/kg/injection, schedule: Q01DX009 (ip), vehicle: water): 87 % of control; T/C (dose: 6.25 mg/kg/injection, schedule: Q01DX009 (ip), vehicle: water): 111 % of control; T/C (dose: 12.5 mg/kg/injection, schedule: Q01DX009 (ip), vehicle: water): 105 % of control; T/C (dose: 12.5 mg/kg/injection, schedule: Q04DX003 (ip), vehicle: water): 91 % of control; T/C (dose: 25.0 mg/kg/injection, schedule: Q01DX009 (ip), vehicle: water): 103 % of control; T/C (dose: 25.0 mg/kg/injection, schedule: Q04DX003 (ip), vehicle: water): 114 % of control; T/C (dose: 50.0 mg/kg/injection, schedule: Q01DX009 (ip), vehicle: water): 97 % of control; T/C (dose: 50.0 mg/kg/injection, schedule: Q04DX003 (ip), vehicle: water): 107 % of control

Q: How did the T/C (dose: 12.5 mg/kg/injection, schedule: Q01DX009 (ip), vehicle: Klucel (hydroxypropylcellulose) (HPC)) turn out when `O=I(=O)c1ccccc1` was run?
A: 91 % of control

Q: And the T/C (dose: 17.0 mg/kg/injection, schedule: Q01DX009 (ip), vehicle: saline with Tween-80)?
A: 92 % of control

Q: What about the T/C (dose: 25.0 mg/kg/injection, schedule: Q01DX009 (ip), vehicle: Klucel (hydroxypropylcellulose) (HPC)) of the same compound?
A: 86 % of control and 100 % of control

Q: What about the T/C (dose: 25.0 mg/kg/injection, schedule: Q01DX009 (ip), vehicle: saline with Tween-80) of the same compound?
A: 96 % of control

Q: And the T/C (dose: 25.0 mg/kg/injection, schedule: Q04DX003 (ip), vehicle: saline with Tween-80)?
A: 100 % of control

Q: And the T/C (dose: 37.0 mg/kg/injection, schedule: Q01DX009 (ip), vehicle: saline with Tween-80)?
A: 96 % of control

Q: And the T/C (dose: 50.0 mg/kg/injection, schedule: Q01DX009 (ip), vehicle: Klucel (hydroxypropylcellulose) (HPC))?
A: 86 % of control and 90 % of control and 118 % of control

Q: What about the T/C [2] of the same compound?
A: 115 % of control

Q: What about the T/C (dose: 50.0 mg/kg/injection, schedule: Q04DX003 (ip), vehicle: saline with Tween-80) of the same compound?
A: 90 % of control

Q: What about the T/C (dose: 100.0 mg/kg/injection, schedule: Q01DX009 (ip), vehicle: Klucel (hydroxypropylcellulose) (HPC)) of the same compound?
A: 104 % of control

Q: What about the T/C [3] of the same compound?
A: 120 % of control

Q: And the T/C [1]?
A: 90 % of control

Q: Which results are given for `OCc1ccn2c1C(O)CC2` (stereo not given)?
A: T/C (dose: 12.5 mg/kg/injection, schedule: Q01DX009 (ip), vehicle: other): 112 % of control; T/C (dose: 25.0 mg/kg/injection, schedule: Q01DX009 (ip), vehicle: other): 102 % of control; T/C [5]: 115 % of control; T/C (dose: 50.0 mg/kg/injection, schedule: Q01DX009 (ip), vehicle: other): 100 % of control; T/C [6]: 165 % of control; T/C (dose: 100.0 mg/kg/injection, schedule: Q01DX009 (ip), vehicle: other): 100 % of control; T/C [7]: 240 % of control and 100 % of control

Q: With `CCCCN(C)C(=S)S[Te](SC(=S)N(C)CCCC)(SC(=S)N(C)CCCC)SC(=S)N(C)CCCC` as the compound, how does the T/C (dose: 45.0 mg/kg/injection, schedule: Q01DX010 (ip), vehicle: carboxymethylcellulose (CMC)) read?
A: 100 % of control

Q: And the T/C (dose: 90.0 mg/kg/injection, schedule: Q01DX010 (ip), vehicle: carboxymethylcellulose (CMC))?
A: 105 % of control

Q: And the T/C (dose: 180.0 mg/kg/injection, schedule: Q01DX010 (ip), vehicle: carboxymethylcellulose (CMC))?
A: 115 % of control

Q: What about the T/C (dose: 360.0 mg/kg/injection, schedule: Q01DX010 (ip), vehicle: carboxymethylcellulose (CMC)) of the same compound?
A: 110 % of control

Q: With `CN(C)/N=C1\C(=O)N(CCCl)c2cc(Cl)c(Cl)cc21` as the compound, how does the T/C [2] read?
A: 97 % of control

Q: And the T/C [3]?
A: 99 % of control

Q: And the T/C [4]?
A: 90 % of control

Q: `O=C1OC(=Nc2cccc([N+](=O)[O-])c2)c2ccccc21` was tested. Which T/C [2] did it give?
A: 150 % of control

Q: What about the T/C [4] of the same compound?
A: 97 % of control

Q: With `OC(CN1CCCCC1)c1cc(-c2ccccc2)no1` (stereo not given) as the compound, how does the T/C [5] read?
A: 100 % of control

Q: What about the T/C [2] of the same compound?
A: 100 % of control

Q: And the T/C [6]?
A: 105 % of control

Q: What about the T/C [3] of the same compound?
A: 100 % of control

Q: And the T/C [7]?
A: 107 % of control

Q: What about the T/C [4] of the same compound?
A: 105 % of control

Q: What about the T/C (dose: 200.0 mg/kg/injection, schedule: Q01DX009 (ip), vehicle: saline) of the same compound?
A: 88 % of control

Q: `Cn1c(/N=C(/N)N=C(N)N)cc(=O)n(C)c1=O` was tested. Which T/C (dose: 50.0 mg/kg/injection, schedule: Q04DX003 (ip), vehicle: saline) did it give?
A: 104 % of control

Q: What about the T/C (dose: 100.0 mg/kg/injection, schedule: Q04DX003 (ip), vehicle: saline) of the same compound?
A: 100 % of control

Q: And the T/C (dose: 200.0 mg/kg/injection, schedule: Q04DX003 (ip), vehicle: saline)?
A: 95 % of control

Q: `CC(/C=N/N=C(N)N)=N\NC(N)=S` was tested. Which T/C [2] did it give?
A: 96 % of control

Q: What about the T/C [3] of the same compound?
A: 116 % of control

Q: And the T/C [4]?
A: 107 % of control
